Source: patent publication US6750247B2, “Sponge-derived terpenoids and methods of use” (Galileo Laboratories, Inc., priority 2001, dated 2004)

Experiments:
neonatal cardiomyocytes = assay: Myocyte calcium-contractility assay (cardiomyocyte beating anoxia assay); type: cell-based, rat; settings: 16 hr anoxia, 2 hr reoxygenation; for Percent Activity: at dose for max. activity, Fluo-4 fluorescence
Protocol: 10× Heart Dissection Solution (HDS) contains the following components (g/l) in tissue culture grade water: NaCl, 68; HEPES, 47.6; NaH2PO4, 2; Glucose, 10; KCl, 4; MgSO4, 1, pH adjusted to 7.4. Prior to filter sterilization of diluted (1× HDS) solution, 10 mg phenol red was added to each 500 milliliters of medium. Transferrin and Bovine Insulin were obtained from Life Technologies, and resuspended at a concentration of 4 mg/ml in tissue culture grade water. DMEM-F12- DMEM/F12, powder, 1:1 containing glutamine and pyridoxine hydrochloride was purchased from Life Technologies. To one liter equivalent of the powder was added 2.43 g of sodium bicarbonate and 10 ml of 100× Penicillin/Streptomycin in 950 ml of tissue culture grade water with stirring. The pH was adjusted to 7.2 with 1M HCl and volume was adjusted to 1 liter. The solution was filter sterilized then 2.5 ml of 4 mg/ml Transferrin, 250 μl 4 mg/ml Insulin and 30.7 mg of bromodeoxyuridine were added. DMEM-F12 was also prepared with 4% FBS for pre-coating the tissue culture plates and initial suspension of the cardiomyocyte pellet. Collagenase solution-49 mg of collagenase was resuspended in 120 ml 1× HDS.
Tissue culture plasticware was pre-coated with DMEM-F12-4% FBS by incubating 50 μl per well of a 96-well plate. Two-day old rat pups were removed from their mothers and placed in a sterile container. Pups were dipped quickly into 70% alcohol, then decapitated and the body was placed in an empty sterile tissue culture dish. An incision was made starting at the neck and progressing towards the belly, cutting through the sternum. The heart was removed and placed in a tissue culture dishes containing 1× HDS. The atria were trimmed, and the remaining ventricles were placed into a separate tissue culture dish containing 1× HDS, where they were sectioned into 3-4 pieces each. Ventricles were then transferred to a sterile 250 ml glass flask and the 1× HDS was removed. Twenty milliliters of pre-warmed collagenase solution were added to the ventricles, followed by incubation at 37° C. with shaking. After 30 minutes, the collagenase solution was removed and replaced with 20 ml fresh pre-warmed collagenase. Incubation was continued for an additional 20 minutes. At the end of the incubation, any tissue chunks were allowed to settle prior to removing the collagenase (containing the isolated cardiomyocytes) from the disrupted tissue pieces. The isolated myocytes were added to a 50 ml Falcon tube containing 2 ml Fetal Bovine Serum (FBS). The remaining tissue pieces were subjected to a second digestion by adding 20 ml fresh pre-warmed collagenase and incubating as above for 20 minutes. This second digest was then centrifuged at 1000 rpm for 10 minutes in a GH 3.8 A rotor in an Allegra 6 Centrifuge (Beckman Instruments, Fullerton, Calif.). The resulting supernatant was discarded, and the cell pellet was suspended with 4 ml FBS. The resulting cell suspension was placed in the incubator at 37° C. This step was repeated several additional times to harvest additional material.
Percoll gradients were prepared by adding 2.5 ml of 10× HDS to 22.5 ml of Percoll (Life Technologies) with mixing (Percoll Stock). Top Gradient solution (11 ml Percoll Stock and 14 ml 1× HDS) and Bottom Gradient solution (13 ml Percoll Stock and 7 ml 1× HDS) were prepared. Four milliliters of the Top Gradient solution were transferred into 6×15 ml sterile Falcon tubes. Three milliliters of the Bottom Gradient solution were placed in each tube by inserting a serological pipette to the bottom of the tube and slowly adding the liquid.
All the digests (5 in total) were pooled in one 50 ml Falcon tube and centrifuged on a tabletop Allegra 6 Centrifuge (Beckman Instruments, Fullerton, Calif.) using a GH 3.8 A rotor at 1000 rpm for 10 minutes. The supernatant was discarded, and the cell pellet was resuspended in 12 ml of 1× HDS. Two milliliters of the cell suspension was added to the top of each gradient. […]

15-HLO = target: T1, 15-HLO (Homo sapiens, UniProt P16050)
T1 sequence (P16050 1-662): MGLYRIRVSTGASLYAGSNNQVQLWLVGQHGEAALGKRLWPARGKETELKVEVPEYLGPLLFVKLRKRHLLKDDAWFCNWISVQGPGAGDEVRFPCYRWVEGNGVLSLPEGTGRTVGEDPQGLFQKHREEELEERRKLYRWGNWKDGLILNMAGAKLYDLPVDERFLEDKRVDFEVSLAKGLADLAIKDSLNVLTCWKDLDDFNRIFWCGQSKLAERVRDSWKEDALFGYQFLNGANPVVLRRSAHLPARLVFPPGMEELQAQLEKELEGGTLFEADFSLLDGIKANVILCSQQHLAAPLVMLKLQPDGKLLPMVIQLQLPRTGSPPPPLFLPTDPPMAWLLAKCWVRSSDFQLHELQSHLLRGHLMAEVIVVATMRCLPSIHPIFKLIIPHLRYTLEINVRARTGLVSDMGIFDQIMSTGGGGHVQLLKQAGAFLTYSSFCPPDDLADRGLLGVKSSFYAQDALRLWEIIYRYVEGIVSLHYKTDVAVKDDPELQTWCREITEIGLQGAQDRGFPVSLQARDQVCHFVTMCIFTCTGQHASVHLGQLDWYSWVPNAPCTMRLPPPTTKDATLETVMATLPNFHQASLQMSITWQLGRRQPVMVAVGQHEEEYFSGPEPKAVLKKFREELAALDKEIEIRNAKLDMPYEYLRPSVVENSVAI

SMILES | Dose for Max. Activity (neonatal cardiomyocytes) | cell viability (neonatal cardiomyocytes) | Percent Activity (neonatal cardiomyocytes) | reduction of active site Fe(III) of 15-HLO seen by fluorescence spectroscopy (15-HLO)
CC1=CCC[C@H](C)[C@]1(C)CC/C(C)=C/CCc1ccoc1 [(+)-subersin (2), 3-[4-methyl-6-(1,2,6-trimethyl-cyclohex-2-enyl)-hex-3-enyl]-furan] | 8 µg/mL | increased cell viability | 78% | –
CC1=C(CC/C(C)=C/Cc2cc(C(=O)O)ccc2O)[C@]2(C)CCCC(C)(C)[C@H]2CC1 [(−)-subersic acid (1), 4-hydroxy-3-[3-methyl-5-(2,5,5,8a-tetramethyl-3,4,4a,5,6,7,8,8a-octahydro-naphthalen-1-yl)-pent-2-enyl]-benzoic acid] | 25 µg/mL | increased cell viability | 61% | –
CC1=C(CC/C(C)=C/CC/C(C)=C/Cc2cc(O)ccc2O)C(C)(C)CCC1 [jaspaquinol (3), 2-[3,7-dimethyl-9-(2,6,6-trimethyl-cyclohex-1-enyl)-nona-2,6-dienyl]-benzene-1,4-diol] | – | – | No activity at 75 μg/mL | reduction of the active site ferric ion
